This passage reports relative viability results from the supplement of paper PMC10307832.

What all share (assay): relative viability (nuclei count vs DMSO), 5 days (fraction); higher = more cells survive
Compound in the experiment “Staurosporine + Olaparib”: CN[C@@H]1C[C@H]2O[C@@](C)([C@@H]1OC)n1c3ccccc3c3c4c(c5c6ccccc6n2c5c31)C(=O)NC4 [Staurosporine] + O=C(c1cc(Cc2n[nH]c(=O)c3ccccc23)ccc1F)N1CCN(C(=O)C2CC2)CC1 [Olaparib] (partner 8 µM)
The gist of the method: (§1)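 Lung cancer cell lines were seeded in 1536-well plates and dosed by pin tool the next day, with either a single drug or a fixed anchor-drug dose combined with five library-drug doses (not always all listed) spaced in √10 steps. Five days later, one step fixed the cells and stained their nuclei (final 0.05% Triton X-100, 1% formaldehyde, 1 ug/ml Hoechst), and nuclei were counted on 4× images. Relative viability is the nuclei count in treated wells divided by the count in vehicle wells, and each value is the median of duplicate plates.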

Compound in the experiment “Sulindac + Decitabine”: CC1=C(CC(=O)O)c2cc(F)ccc2/C1=C\c1ccc([S+](C)[O-])cc1 [Sulindac] + Nc1ncn([C@H]2C[C@H](O)[C@@H](CO)O2)c(=O)n1 [Decitabine] (partner 2 µM)
In a few lines: as §1

Compound in experiment [1]: O=c1[nH]cc(F)c(=O)[nH]1 [5-Fluorouracil] + C[C@]1(O)C[C@@H](c2nc(-c3ccc4ccc(-c5ccccc5)nc4c3)c3c(N)nccn32)C1 [Linsitinib] (partner 1 µM)
The gist of the method: as §1

Compound in experiment [2]: O=c1[nH]cc(F)c(=O)[nH]1 [5-Fluorouracil] + C[C@@H](Oc1cc(-c2cnn(C3CCNCC3)c2)cnc1N)c1c(Cl)ccc(F)c1Cl [Crizotinib] (partner 1 µM)
In a few lines: as §1

Turning to SW 1573, the relative viability worked out at 0.189 with Staurosporine + Olaparib (first compound 0.005 µM); 0.124 with Staurosporine + Olaparib (first compound 0.01581 µM); 0.121 with Staurosporine + Olaparib (first compound 0.05 µM); 0.0899 with Staurosporine + Olaparib (first compound 0.1581 µM); 0.063 with Staurosporine + Olaparib (first compound 0.5 µM); 0.688 in the experiment with Sulindac + Decitabine (first compound 0.08 µM). Also, the relative viability with Sulindac + Decitabine (first compound 0.253 µM) is 0.538; with Sulindac + Decitabine (first compound 0.8 µM), 0.443; in the experiment with Sulindac + Decitabine (first compound 2.53 µM) it was 0.368; with Sulindac + Decitabine (first compound 8 µM) it was 0.641; in experiment [1] (first compound 0.02 µM), 0.734; in experiment [1] (first compound 0.2 µM), 0.917. Moreover, the relative viability was 0.782 in experiment [1] (first compound 0.6325 µM); 0.483 in experiment [1] (first compound 2 µM); 0.824 in experiment [2] (first compound 0.02 µM); 0.899 in experiment [2] (first compound 0.2 µM); 0.778 in experiment [2] (first compound 0.6325 µM); 0.463 in experiment [2] (first compound 2 µM).
